Assay results: ChEMBL document CHEMBL1155699, “Steroidal alkaloids from the leaves of Sarcococca coriacea of Nepalese origin” (J Nat Prod, 2001)

Experiments:
Cholinesterase = Cholinesterase (Equus caballus, UniProt P81908); assay: Inhibition of horse BChE
Acetylcholinesterase = Acetylcholinesterase (Electrophorus electricus, UniProt O42275); assay: Inhibition of electric eel AChE by Ellman's method
Acetylcholinesterase, sequence (O42275 whole entry): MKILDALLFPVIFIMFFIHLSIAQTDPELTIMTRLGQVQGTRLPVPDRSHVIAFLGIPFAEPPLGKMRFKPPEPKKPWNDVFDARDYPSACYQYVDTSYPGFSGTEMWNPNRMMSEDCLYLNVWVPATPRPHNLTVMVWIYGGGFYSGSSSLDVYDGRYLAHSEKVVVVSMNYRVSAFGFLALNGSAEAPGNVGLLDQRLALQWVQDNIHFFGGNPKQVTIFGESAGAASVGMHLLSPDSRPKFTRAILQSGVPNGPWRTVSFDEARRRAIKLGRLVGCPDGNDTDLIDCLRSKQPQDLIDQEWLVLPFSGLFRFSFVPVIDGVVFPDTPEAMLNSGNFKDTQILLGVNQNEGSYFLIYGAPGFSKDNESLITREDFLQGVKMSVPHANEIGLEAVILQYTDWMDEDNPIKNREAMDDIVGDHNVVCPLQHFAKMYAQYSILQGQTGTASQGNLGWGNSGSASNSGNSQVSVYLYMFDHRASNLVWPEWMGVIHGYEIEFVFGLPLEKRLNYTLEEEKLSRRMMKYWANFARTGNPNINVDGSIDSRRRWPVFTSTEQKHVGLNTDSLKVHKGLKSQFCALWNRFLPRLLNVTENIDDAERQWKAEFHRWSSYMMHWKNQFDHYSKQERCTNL

Cholinesterase, sequence (P81908 whole entry): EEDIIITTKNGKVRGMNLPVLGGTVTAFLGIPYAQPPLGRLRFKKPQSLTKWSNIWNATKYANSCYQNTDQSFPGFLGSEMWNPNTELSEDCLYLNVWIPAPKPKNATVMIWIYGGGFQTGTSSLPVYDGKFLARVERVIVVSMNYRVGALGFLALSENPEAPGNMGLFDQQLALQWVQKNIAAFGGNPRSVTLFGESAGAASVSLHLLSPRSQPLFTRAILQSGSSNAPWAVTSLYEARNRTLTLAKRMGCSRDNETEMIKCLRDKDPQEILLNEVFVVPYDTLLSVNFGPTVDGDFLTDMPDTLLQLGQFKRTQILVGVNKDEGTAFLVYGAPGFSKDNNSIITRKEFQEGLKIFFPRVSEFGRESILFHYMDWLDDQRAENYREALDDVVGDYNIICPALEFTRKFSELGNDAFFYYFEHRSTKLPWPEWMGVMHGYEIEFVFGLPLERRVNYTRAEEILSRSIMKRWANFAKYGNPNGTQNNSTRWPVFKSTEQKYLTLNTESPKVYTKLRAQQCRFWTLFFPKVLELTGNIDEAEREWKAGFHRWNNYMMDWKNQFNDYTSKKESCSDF

SMILES: CC(=O)O[C@H]1[C@@H](NC(=O)C=C(C)C)CC[C@]2(C)[C@H]3CC[C@]4(C)C([C@H](C)N(C)C)=CC[C@H]4[C@@H]3CC[C@@H]12 [VAGANINE D]
- IC50 (Cholinesterase): 10 µM
- IC50 (Acetylcholinesterase): 46.9 µM

SMILES: C/C=C(\C)C(=O)N[C@@H]1[C@H](OC(C)=O)[C@@H]2CC[C@@H]3[C@H](CC[C@]4(C)C([C@H](C)NC)=CC[C@@H]34)[C@@]2(C)C[C@@H]1OC(C)=O [NEPAPAKISTAMINE]
- IC50 (Cholinesterase): 25 µM
- IC50 (Acetylcholinesterase): 50.1 µM
